{"source": "paper PMC7352342", "about": "“Inhibition of Patched Drug Efflux Increases Vemurafenib Effectiveness against Resistant Braf^V600E Melanoma” (Cancers, 2020)", "key": {"[1]": {"test": "Cytotoxicity assay (neutral red), A375 cells", "format": "cell-based, human", "conditions": "human, A375 melanoma cells, A375; 24 or 48 h; read-out: sPAH-IC50 (cytotoxicity of sPAH alone)", "procedure": "(§1) Human melanoma cell lines A375 and MeWo were purchased from ATCC, and cultured in DMEM medium supplemented with 10% fetal bovine serum and penicillin/streptomycin (Invitrogen) at 37 °C in a 5% CO2/95% water-saturated air atmosphere. Melanoma cell lines SKMEL 28, SKMEL V3, WM9S, and WM9R were provided by Robert Ballotti (C3M, Nice, France). MeWo-dxrR cells were obtained by adding increasing concentrations of doxorubicin, up to 0.2 µM, in the culture medium over 6 months. These cells were grown in medium supplemented with 0.2 µM dxr. WM9R cells were obtained by adding increasing concentrations of vemurafenib, up to 5 µM, in the culture medium over 6 months. These cells were grown in medium supplemented with 5 µM vemurafenib. HEK cells were grown in 75 mm tissue culture dishes (Falcon, Franklin Lakes, NJ, USA) in Dulbecco’s modified Eagle’s medium (Gibco, Life Technologies, Saint Aubin, France) supplemented with 10% fetal calf serum (Hyclone, Thermo Fisher Scientific GMBH, Ulm, Germany) and 1% penicillin/streptomycin (Gibco, Life Technologies, Saint Aubin, France) in a humidified incubator at 37 °C (5% CO2).\n(§2) Cells were seeded in 96-well plates in triplicate and grown in medium to achieve 70 to 80% confluence. Medium was then removed and replaced with 100 µL/well of complete medium containing PAH or DMSO as a control. After 2 h, 100 µL of complete medium containing serial dilutions of dxr, cisplatin or vemurafenib were added. Plates were incubated at 37 °C and 5% CO2. After 24 or 48 h, cells were incubated for 3 h at 37 °C with 100 µL/well neutral red (NR) solution (50 µg/mL in medium) following the manufacturer’s protocol. Measurements were made in microplate readers (Multiskan Go Microplate Spectrophotometer from Thermo Scientific)."}, "[2]": {"test_system": "A375 cells", "test": "Cytotoxicity assay (neutral red), A375 cells", "format": "cell-based, human", "conditions": "A375", "procedure": "as §1, §2"}, "[3]": {"test": "Cytotoxicity assay (neutral red), WM9R cells", "format": "cell-based", "conditions": "human, WM9R melanoma cells (vemurafenib-resistant); read-out: sPAH-IC50 (cytotoxicity of sPAH alone)", "procedure": "as §1\n(§3) Cells were seeded in 96-well plates in triplicate and grown in medium to achieve 70 to 80% confluence. […] Measurements were made in microplate readers (Multiskan Go Microplate Spectrophotometer from Thermo Scientific)."}, "[4]": {"test_system": "WM9R cells", "test": "Cytotoxicity assay (neutral red), WM9R cells", "format": "cell-based", "conditions": "WM9R; sPAH 20 µM; 24 h", "procedure": "as §1, §3"}, "[5]": {"test_system": "MeWo cells", "test": "Dxr efflux measurement by fluorescence microscopy, MeWo cells", "format": "cell-based, human", "conditions": "30 min in efflux buffer", "procedure": "Dxr efflux measurements were carried out as previously described. Cells were seeded on coverslips in 24-well plates and allowed to grow to 80% confluence. Coverslips were incubated at 37 °C and 5% CO2 with 10 μM dxr in physiological buffer (140 mM NaCl, 5 mM KCl, 1 mM CaCl2, 1 mM MgSO4, 5 mM glucose, 20 mM HEPES, pH 7.4). After 2 h, three coverslips were immediately fixed with 4% PFA for the dxr loading control, rapidly washed with PBS and mounted in SlowFade Gold antifade reagent with DAPI (Invitrogen). The other coverslips (triplicated per condition) were incubated with physiological buffer supplemented with DMSO or 10 µM of PAH under gentle shaking at room temperature and protected from light. After 30 min, coverslips were fixed with 4% PFA, washed, and mounted as described above. For competition on dxr loading, A375 and WM9R cells seeded on coverslips were incubated for 1 h at 37 °C and 5% CO2 with 10 μM dxr in physiological buffer in the presence or the absence of 100 µM vemurafenib. Images were acquired with a Zeiss Axioplan 2 fluorescence microscope coupled to a digital charge-coupled device camera using a 40×/1.3 Plan NeoFluar objective and filters for Alexa 594. Dxr fluorescence was quantified using ImageJ software. Sampling of cells was performed randomly. About 100 cells (from three wells) were scored per condition per experiment."}, "[6]": {"test_system": "WM9R cells", "test": "Wound-healing assay, WM9R cells", "format": "cell-based", "conditions": "48 h after wounding, sPAH added to vemurafenib", "procedure": "Once cells were confluent in 24-well plates, a wound was created using a p200 tip. Two pictures were taken at two different points of each well immediately after wounding, and 48 h after wounding. Images were taken with Leica DM IRB (5×). The width of the wound was measured using ImageJ software and reported as percentage final wound width/initial wound width."}}, "data": [{"smiles": "COc1cc(C)c(CC/C(C)=C/Cc2cc(O)ccc2O)c(C)c1C", "note": "[sPAH, Panicein A hydroquinone]", "values": [{"measurement": "IC50", "setting": "[1]", "value": "~40", "unit": "µM"}, {"measurement": "IC50", "setting": "[2]; 24 or 48 h, read-out: sPAH-IC50 (cytotoxicity of sPAH alone)", "value": "38.3 ± 6.8", "unit": "µM"}, {"measurement": "sensitivity of cells to vemurafenib in the presence of sPAH", "setting": "[2]; 24 h, sPAH between 10 and 20 µM", "value": "significantly increased"}, {"measurement": "IC50 of cisplatin in the presence of sPAH", "setting": "[2]; sPAH 20 µM vs DMSO (Figure S2)", "value": "significantly decreased"}, {"measurement": "IC50", "setting": "[3]", "value": "41 ± 6.2", "unit": "µM"}, {"measurement": "change of the IC50 of vemurafenib in the presence of sPAH", "setting": "[4]", "value": "decrease by a factor of ten"}, {"measurement": "inhibition of dxr efflux, synthetic compared with natural PAH", "setting": "[5]", "value": "as efficiently as the natural PAH"}, {"measurement": "effect on vemurafenib efficacy against cell migration", "setting": "[6]", "value": "the same effect was observed"}]}]}
